For assay [1], the target named is KRAS G12V (Homo sapiens, UniProt P01116, G12V). The assay is described as follows: GDP-GTP exchange assay (bodipy-GDP/GppNHp, SOS1), KRAS G12V. The format is biochemical. Particulars: KRAS G12V mutant; value for the most potent isomer quoted for certain compounds; read-out: G12V (KRAS G12V exchange assay IC50).
Assay [2] deals with KRAS G12D (Homo sapiens, UniProt P01116, G12D). The assay is described as follows: GDP-GTP exchange assay (bodipy-GDP/GppNHp, SOS1), KRAS G12D. In kind it is biochemical. As to conditions: bodipy-loaded KRAS G12D 2.5 nM, 4 h pre-incubation; value for the most potent isomer quoted for certain compounds; read-out: G12D (KRAS G12D exchange assay IC50).

As a reminder, the IC50 is the point on the concentration scale where inhibition reaches its midpoint.

KRAS G12D, sequence (P01116 1-188 isoform P01116-2 G12D): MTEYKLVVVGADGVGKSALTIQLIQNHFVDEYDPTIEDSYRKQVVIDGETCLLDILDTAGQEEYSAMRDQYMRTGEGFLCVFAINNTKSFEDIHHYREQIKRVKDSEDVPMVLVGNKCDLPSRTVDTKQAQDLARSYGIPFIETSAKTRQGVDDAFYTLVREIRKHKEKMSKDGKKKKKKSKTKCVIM
KRAS G12V, sequence (P01116 1-188 isoform P01116-2 G12V): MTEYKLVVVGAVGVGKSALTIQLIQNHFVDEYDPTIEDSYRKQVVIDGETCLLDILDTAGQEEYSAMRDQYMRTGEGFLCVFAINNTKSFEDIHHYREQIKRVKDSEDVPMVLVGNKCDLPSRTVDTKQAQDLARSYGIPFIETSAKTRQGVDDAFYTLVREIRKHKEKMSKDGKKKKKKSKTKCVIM

As for `C[C@@H](O)c1nc2c(F)c(-c3cccc(Cl)c3Cl)c(CCC#N)cc2c2c1cc([C@H]1C[C@H](Oc3cc(F)ccn3)CN1C(=O)C1CC1)n2[C@H]1C2CNC1C2` (stereo partly drawn) [Example 425], the IC50 in assay [1] and in assay [2] was ≤ 100 nM each time.
Take `N#CCCc1cc2c(nc(C3=CCOCC3)c3cc([C@H]4C[C@H](OCc5c(F)cccc5F)CN4C(=O)C4CC4)n([C@H]4[C@H]5CN[C@@H]4C5)c32)c(F)c1-c1cccc(Cl)c1Cl` [Example 218]: the IC50 in assay [1] and in assay [2] was ≤ 100 nM each time.
Consider `Cc1nc2c(F)c(-c3cccc(Cl)c3Cl)c(CCC#N)cc2c2c1cc([C@H]1C[C@H](OC[C@@H]3CCCC[C@H]3C)CN1C(=O)C1CC1)n2[C@H]1[C@H]2CN[C@@H]1C2` [Example 286], for which the IC50 lay in the range of 100 to 1000 nM in assay [1] and 1000 to 5000 nM in assay [2].
The matching figures for `Cc1nc2c(F)c(-c3cccc(Cl)c3Cl)c(CCC#N)cc2c2c1cc([C@H]1C[C@H](n3ccnn3)CN1C(=O)C1CC1)n2[C@H]1[C@H]2CN[C@@H]1C2` [Example 342]: ≤ 100 nM and ≤ 100 nM.
The matching figures for `N#CCCc1cc2c(nc(C3CC4CCCC3N4)c3cc([C@H]4C[C@H](OCc5c(F)cccc5F)CN4C(=O)C4CC4)n([C@H]4[C@H]5CN[C@@H]4C5)c32)c(F)c1-c1cccc(Cl)c1Cl` (stereo partly drawn) [Example 246]: ≤ 100 nM and 100 to 1000 nM.
Taken in the same sequence, the figures for `CO[C@H]1CC[C@@H](O[C@H]2C[C@H](c3cc4c(C)nc5c(F)c(-c6cccc(Cl)c6Cl)c(CCC#N)cc5c4n3[C@H]3[C@H]4CN[C@@H]3C4)N(C(=O)C3CC3)C2)C1` [Example 439] were ≤ 100 nM and ≤ 100 nM.
Turning to `C#Cc1ccc(O[C@H]2C[C@H](c3cc4c(C)nc5c(F)c(-c6cccc(Cl)c6Cl)c(CCC#N)cc5c4n3[C@H]3[C@H]4CN[C@@H]3C4)N(C(=O)C3CC3)C2)nc1` [Example 305], the half-inhibitory concentration (IC50) in assay [1] and in assay [2] was ≤ 100 nM throughout.
Consider `Cc1nc2c(F)c(-c3cccc(Cl)c3Cl)c(CCC#N)cc2c2c1cc([C@H]1C[C@H](n3cc(C4(C(C)(F)F)CC4)nn3)CN1C(=O)C1CC1)n2[C@H]1[C@H]2CN[C@@H]1C2` [Example 382], for which the IC50 in assay [1] and in assay [2] was ≤ 100 nM in each case.
Regarding `Cc1nc2c(F)c(-c3cccc(Cl)c3Cl)c(CCC#N)cc2c2c1cc([C@H]1C[C@H](n3cc(CCc4ccccc4)nn3)CN1C(=O)C1CC1)n2[C@H]1[C@H]2CN[C@@H]1C2` [Example 389], the IC50 in assay [1] and in assay [2] was ≤ 100 nM in each case.
On to `CC(=O)N(C)Cc1cn([C@H]2C[C@H](c3cc4c(C)nc5c(F)c(-c6cccc(Cl)c6Cl)c(CCC#N)cc5c4n3[C@H]3[C@H]4CN[C@@H]3C4)N(C(=O)C3CC3)C2)nn1` [Example 271], for which the IC50 in assay [1] and in assay [2] was ≤ 100 nM in each case.
Regarding `Cc1nnn([C@H]2C[C@H](c3cc4c(C)nc5c(F)c(-c6cccc(Cl)c6Cl)c(CCC#N)cc5c4n3[C@H]3[C@H]4CN[C@@H]3C4)N(C(=O)C3CC3)C2)c1CO` [Example 327], the IC50 in assay [1] and in assay [2] was ≤ 100 nM in each case.
Take `Cc1nc2c(F)c(-c3cccc(Cl)c3Cl)c(CCC#N)cc2c2c1cc([C@H]1C[C@H](Oc3ccnc(C#N)c3)CN1C(=O)C1CC1)n2[C@H]1[C@H]2CN[C@@H]1C2` [Example 198]: the IC50 in assay [1] and in assay [2] was ≤ 100 nM throughout.
Regarding `Cc1nc2c(F)c(-c3cccc(Cl)c3Cl)c(CCC#N)cc2c2c1cc([C@H]1C[C@H](Oc3cccnc3OC(C)C)CN1C(=O)C1CC1)n2[C@H]1[C@H]2CN[C@@H]1C2` [Example 444], the IC50 in assay [1] and in assay [2] was ≤ 100 nM each time.
Turning to `Cc1ccnc(C)c1CO[C@H]1C[C@H](c2cc3c(C)nc4c(F)c(-c5cccc(Cl)c5Cl)c(CCC#N)cc4c3n2[C@H]2[C@H]3CN[C@@H]2C3)N(C(=O)C2CC2)C1` [Example 125], the IC50 in assay [1] and in assay [2] was ≤ 100 nM in each case.
In the case of `Cc1cc(C)cc(O[C@H]2C[C@H](c3cc4c(C)nc5c(F)c(-c6cccc(Cl)c6Cl)c(CCC#N)cc5c4n3[C@H]3[C@H]4CN[C@@H]3C4)N(C(=O)C3CC3)C2)c1` [Example 166], the IC50 in assay [1] and in assay [2] was ≤ 100 nM throughout.
On to `Cc1nc2c(F)c(-c3cccc(Cl)c3Cl)c(CCC#N)cc2c2c1cc([C@H]1C[C@H](OCc3c(F)cccc3F)CN1C(=O)c1ccccc1)n2[C@H]1[C@H]2CN[C@@H]1C2` [Example 195], for which the IC50 in assay [1] is ≤ 100 nM; in assay [2], 100 to 1000 nM.
The matching figures for `Cc1nc2c(F)c(-c3cccc(Cl)c3Cl)c(CCC#N)cc2c2c1cc([C@H]1C[C@H](n3cc(C4CCCO4)nn3)CN1C(=O)C1CC1)n2[C@H]1C2CNC1C2` (stereo partly drawn) [Example 180]: ≤ 100 nM and ≤ 100 nM.
Taken in the same sequence, the figures for `Cc1nc2c(F)c(-c3cccc(Cl)c3Cl)c(CCC#N)cc2c2c1cc([C@H]1C[C@H](n3cc(C4CCOC4)nn3)CN1C(=O)C1CC1)n2[C@H]1C2CNC1C2` (stereo partly drawn) [Example 181] were ≤ 100 nM and ≤ 100 nM.
Taken in the same sequence, the figures for `Cc1nc2c(F)c(-c3cccc(Cl)c3Cl)c(CCC#N)cc2c2c1cc([C@H]1C[C@H](OCc3nccs3)C(C)(C)N1C(=O)C1CC1)n2[C@H]1[C@H]2CN[C@@H]1C2` [Example 405] were ≤ 100 nM and ≤ 100 nM.
Regarding `Cc1nc2c(F)c(-c3cccc(Cl)c3Cl)c(CCC#N)cc2c2c1cc([C@H]1C[C@H](OC3CCOC3)CN1C(=O)C1CC1)n2[C@H]1[C@H]2CN[C@@H]1C2` (stereo partly drawn) [Example 364], the IC50 in assay [1] and in assay [2] was ≤ 100 nM each time.
Turning to `[2H]C([2H])(O[C@H]1C[C@H](c2cc3c(C)nc4c(F)c(-c5cccc(Cl)c5Cl)c(CCC#N)cc4c3n2[C@H]2[C@H]3CN[C@@H]2C3)N(C(=O)C2CC2)[C@@H]1C)c1cc(C)sn1` [Example 241], the IC50 in assay [1] and in assay [2] was ≤ 100 nM throughout.
On to `Cc1ccncc1O[C@H]1C[C@H](c2cc3c(C)nc4c(F)c(-c5cccc(Cl)c5Cl)c(CCC#N)cc4c3n2[C@H]2[C@H]3CN[C@@H]2C3)N(C(=O)C2CC2)C1` [Example 130], for which the IC50 in assay [1] and in assay [2] was ≤ 100 nM throughout.
Regarding `COc1cccc(CO[C@H]2C[C@H](c3cc4c(C)nc5c(F)c(-c6cccc(Cl)c6Cl)c(CCC#N)cc5c4n3[C@H]3[C@H]4CN[C@@H]3C4)N(C(=O)C3CC3)C2)c1F` [Example 154], the IC50 in assay [1] and in assay [2] was ≤ 100 nM in each case.
Consider `CCOc1ncccc1O[C@H]1C[C@H](c2cc3c(C)nc4c(F)c(-c5cccc(Cl)c5Cl)c(CCC#N)cc4c3n2[C@H]2[C@H]3CN[C@@H]2C3)N(C(=O)C2CC2)C1` [Example 443], for which the IC50 in assay [1] and in assay [2] was ≤ 100 nM in each case.
In the case of `N#CCCc1cc2c(nc(-c3ccc(N4CCCC4=O)nc3)c3cc([C@H]4C[C@H](OCc5c(F)cccc5F)CN4C(=O)C4CC4)n([C@H]4[C@H]5CN[C@@H]4C5)c32)c(F)c1-c1cccc(Cl)c1Cl` [Example 207], the IC50 in assay [1] is ≤ 100 nM; in assay [2] it was 100 to 1000 nM.
Taken in the same sequence, the figures for `COC(=O)c1cccc(O[C@H]2C[C@H](c3cc4c(C)nc5c(F)c(-c6cccc(Cl)c6Cl)c(CCC#N)cc5c4n3[C@H]3[C@H]4CN[C@@H]3C4)N(C(=O)C3CC3)C2)c1` [Example 189] were ≤ 100 nM and ≤ 100 nM.
With `Cc1ccnc(C)c1CO[C@H]1C[C@H](c2cc3c(C)nc4c(F)c(-c5cccc(Cl)c5Cl)c(CCC#N)cc4c3n2[C@H]2[C@H]3CN[C@@H]2C3)N(C(=O)C2(C)CC2)C1` [Example 140], the IC50 in assay [1] and in assay [2] was ≤ 100 nM in each case.
`COCC1(c2cn([C@H]3C[C@H](c4cc5c(C)nc6c(F)c(-c7cccc(Cl)c7Cl)c(CCC#N)cc6c5n4[C@H]4[C@H]5CN[C@@H]4C5)N(C(=O)C4CC4)C3)nn2)CC1` [Example 383]: the IC50 in assay [1] and in assay [2] was ≤ 100 nM in each case.
As to `Cc1nc2c(F)c(-c3cccc(Cl)c3Cl)c(CCC#N)cc2c2c1cc([C@H]1C[C@H](n3ccc(C#N)n3)CN1C(=O)C1CC1)n2[C@H]1[C@H]2CN[C@@H]1C2` [Example 317], the IC50 in assay [1] and in assay [2] was ≤ 100 nM throughout.
Regarding `Cc1nc(C)n([C@H]2C[C@H](c3cc4c(C)nc5c(F)c(-c6cccc(Cl)c6Cl)c(CCC#N)cc5c4n3[C@H]3[C@H]4CN[C@@H]3C4)N(C(=O)C3CC3)C2)n1` [Example 350], the IC50 in assay [1] and in assay [2] was ≤ 100 nM each time.
As to `Cc1nc2c(F)c(-c3cccc(Cl)c3Cl)c(CCC#N)cc2c2c1cc([C@H]1C[C@H](Oc3ccn(C)n3)CN1C(=O)C1CC1)n2[C@H]1[C@H]2CN[C@@H]1C2` [Example 170], the IC50 in assay [1] and in assay [2] was ≤ 100 nM each time.
Consider `Cc1nc2c(F)c(-c3cccc(Cl)c3Cl)c(CCC#N)cc2c2c1cc([C@H]1C[C@H](OCc3nnn(C)c3C)CN1C(=O)C1CC1)n2[C@H]1[C@H]2CN[C@@H]1C2` [Example 234], for which the IC50 in assay [1] and in assay [2] was ≤ 100 nM in each case.
Take `Cc1nc2c(F)c(-c3cccc(Cl)c3Cl)c(CCC#N)cc2c2c1cc([C@H]1C[C@H](Oc3cccc(C(=O)N(C)C)c3)CN1C(=O)C1CC1)n2[C@H]1[C@H]2CN[C@@H]1C2` [Example 174]: the IC50 in assay [1] and in assay [2] was ≤ 100 nM in each case.
Regarding `Cc1nc2c(F)c(-c3cccc(Cl)c3Cl)c(CCC#N)cc2c2c1cc([C@H]1C[C@H](Oc3ccn(C)c3C(F)(F)F)CN1C(=O)C1CC1)n2[C@H]1[C@H]2CN[C@@H]1C2` [Example 407], the IC50 in assay [1] and in assay [2] was ≤ 100 nM throughout.
For the compound `Cc1nc2c(F)c(-c3cccc(Cl)c3Cl)c(CCC#N)cc2c2c1cc([C@H]1C[C@H](Oc3cccc(C(=O)N4CCOCC4)c3)CN1C(=O)C1CC1)n2[C@H]1[C@H]2CN[C@@H]1C2` [Example 222], the IC50 in assay [1] and in assay [2] was ≤ 100 nM throughout.
For the compound `CC(O)c1nc2c(F)c(-c3cccc(Cl)c3Cl)c(CCC#N)cc2c2c1cc([C@H]1C[C@H](OCC3(C#N)CC3)CN1C(=O)C1CC1)n2[C@H]1[C@H]2CN[C@@H]1C2` (stereo partly drawn) [Example 404], the IC50 in assay [1] and in assay [2] was ≤ 100 nM in each case.

(Values after patent US20240390340A1 (INCYTE CORPORATION, priority 2023, published 2024).)
